{"source": "patent US20240277651A1", "about": "“MIXED GLYCEROL ESTER COMPOSITION” (priority 2021, published 2024)", "origin": "cited, not measured here", "tested_on": "pathogenic, gram-positive bacteria", "conditions": "Skrivanova et al, Veterinarni Medicina, 51, 2006", "data": [{"smiles": "CCCCCCCCCCCC(=O)OCC(O)CO", "note": "(stereo not shown) [monolaurin]", "values": [{"measurement": "Inhibitory action on pathogenic, gram-positive bacteria", "value": "inhibitory action"}]}]}
